Reference: ChEMBL document CHEMBL5291721, “A preclinical secondary pharmacology resource illuminates target-adverse drug reaction associations of marketed drugs” (Nat Commun, 2023)
*1 amine or outer side, *2 acyl side, *3 side chain or, on linkers, in order; H or OH if unused. Where a SMILES comes first, the peptide text is derived from it. Bridges are numbered along the chain shown (N, C = ends). [ ]: non-standard residue; d: D form. The star is where a group is joined. hTyr(3S-OH,4S-OH,3'-OSO3H) = N[C@H](C(=O)O)[C@H](O)[C@@H](O)c1ccc(O)c(OS(=O)(=O)O)c1; Orn(4R-OH,5R-OH) = O=C([C@H](C[C@@H](O)[C@@H](O)N[*:3])N[*:1])[*:2]; Pro(3S-OH,4S-Me) = C[C@H]1CN[C@H](C(=O)O)[C@H]1O; X1 = CCCCCOc1ccc(-c2cc(-c3ccc(C(=O)*)cc3)no2)cc1; Gln(3R-OH) = NC(=O)C[C@@H](O)[C@H](N)C(=O)O; Hyp = O=C(O)[C@@H]1C[C@@H](O)CN1

What was measured:
Androgen receptor [1] = target: T1, Androgen receptor (Homo sapiens, UniProt P10275)
T1 sequence (P10275 whole entry): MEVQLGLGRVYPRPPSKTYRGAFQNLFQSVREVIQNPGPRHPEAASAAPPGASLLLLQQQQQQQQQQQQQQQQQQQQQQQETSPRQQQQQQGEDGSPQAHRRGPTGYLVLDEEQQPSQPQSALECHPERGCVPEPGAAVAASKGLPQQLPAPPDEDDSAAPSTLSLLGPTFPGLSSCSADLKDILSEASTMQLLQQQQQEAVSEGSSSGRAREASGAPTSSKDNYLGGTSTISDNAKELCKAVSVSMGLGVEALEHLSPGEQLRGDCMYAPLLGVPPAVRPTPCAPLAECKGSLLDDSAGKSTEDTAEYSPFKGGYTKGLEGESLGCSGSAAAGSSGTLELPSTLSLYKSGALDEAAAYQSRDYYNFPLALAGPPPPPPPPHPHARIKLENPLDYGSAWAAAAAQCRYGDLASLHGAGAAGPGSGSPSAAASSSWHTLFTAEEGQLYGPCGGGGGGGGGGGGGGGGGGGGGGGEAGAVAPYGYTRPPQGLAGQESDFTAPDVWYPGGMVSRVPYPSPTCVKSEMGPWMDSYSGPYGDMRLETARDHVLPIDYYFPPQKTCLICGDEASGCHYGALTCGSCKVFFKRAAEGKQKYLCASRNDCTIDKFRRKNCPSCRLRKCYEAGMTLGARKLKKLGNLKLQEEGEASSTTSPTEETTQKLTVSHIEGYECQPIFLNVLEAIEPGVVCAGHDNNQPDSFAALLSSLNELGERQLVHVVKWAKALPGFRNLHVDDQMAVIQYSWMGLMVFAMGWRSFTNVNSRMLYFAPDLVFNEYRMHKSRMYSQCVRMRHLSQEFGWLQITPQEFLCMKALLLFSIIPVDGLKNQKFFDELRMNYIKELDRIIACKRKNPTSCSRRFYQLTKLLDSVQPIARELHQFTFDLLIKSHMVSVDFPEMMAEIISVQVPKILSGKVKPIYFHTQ

Histamine H1 receptor = Histamine H1 receptor (Homo sapiens, UniProt P35367)
Chain of Histamine H1 receptor (P35367 whole entry): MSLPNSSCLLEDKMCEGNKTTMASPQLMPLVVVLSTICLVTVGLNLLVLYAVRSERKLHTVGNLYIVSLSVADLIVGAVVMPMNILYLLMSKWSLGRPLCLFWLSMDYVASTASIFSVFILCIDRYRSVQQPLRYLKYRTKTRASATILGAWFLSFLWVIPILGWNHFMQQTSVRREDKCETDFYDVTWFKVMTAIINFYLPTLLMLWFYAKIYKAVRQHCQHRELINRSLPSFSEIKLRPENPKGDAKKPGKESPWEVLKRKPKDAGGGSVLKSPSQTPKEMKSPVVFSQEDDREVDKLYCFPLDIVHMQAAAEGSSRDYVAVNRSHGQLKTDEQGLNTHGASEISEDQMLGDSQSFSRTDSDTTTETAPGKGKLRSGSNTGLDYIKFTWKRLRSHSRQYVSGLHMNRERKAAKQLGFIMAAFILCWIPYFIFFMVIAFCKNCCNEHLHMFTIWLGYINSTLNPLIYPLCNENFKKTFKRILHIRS

Androgen receptor [2] = target: T2, Androgen receptor (Rattus norvegicus, UniProt P15207); type: functional
T2 sequence (P15207 whole entry): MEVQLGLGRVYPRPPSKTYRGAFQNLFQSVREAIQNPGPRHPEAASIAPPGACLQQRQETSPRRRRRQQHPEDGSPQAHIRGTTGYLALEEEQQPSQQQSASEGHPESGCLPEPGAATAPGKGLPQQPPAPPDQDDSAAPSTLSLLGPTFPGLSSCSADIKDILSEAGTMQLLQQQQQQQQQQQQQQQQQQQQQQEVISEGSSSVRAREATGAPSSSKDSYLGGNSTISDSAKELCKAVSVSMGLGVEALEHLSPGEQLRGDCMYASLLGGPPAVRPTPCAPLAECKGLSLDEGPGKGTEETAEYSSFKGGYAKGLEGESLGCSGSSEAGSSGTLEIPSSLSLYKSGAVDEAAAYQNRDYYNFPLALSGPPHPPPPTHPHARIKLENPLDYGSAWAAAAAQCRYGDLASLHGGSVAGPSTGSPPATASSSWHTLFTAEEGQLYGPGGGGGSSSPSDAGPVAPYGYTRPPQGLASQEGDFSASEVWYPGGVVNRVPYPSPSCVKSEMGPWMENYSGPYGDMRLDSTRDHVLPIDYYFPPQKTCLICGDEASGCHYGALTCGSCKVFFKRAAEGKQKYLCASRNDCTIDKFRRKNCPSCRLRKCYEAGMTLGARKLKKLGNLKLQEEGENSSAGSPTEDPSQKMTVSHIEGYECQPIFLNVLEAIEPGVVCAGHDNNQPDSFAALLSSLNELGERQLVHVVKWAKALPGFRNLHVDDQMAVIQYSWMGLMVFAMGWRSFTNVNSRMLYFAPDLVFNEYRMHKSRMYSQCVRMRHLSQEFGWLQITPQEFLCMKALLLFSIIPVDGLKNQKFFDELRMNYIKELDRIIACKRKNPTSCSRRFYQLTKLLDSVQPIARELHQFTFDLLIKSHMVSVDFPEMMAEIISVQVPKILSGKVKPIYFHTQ

[3] = target: T3, Muscarinic acetylcholine receptor M2 (Homo sapiens, UniProt P08172)
T3 sequence (P08172 whole entry): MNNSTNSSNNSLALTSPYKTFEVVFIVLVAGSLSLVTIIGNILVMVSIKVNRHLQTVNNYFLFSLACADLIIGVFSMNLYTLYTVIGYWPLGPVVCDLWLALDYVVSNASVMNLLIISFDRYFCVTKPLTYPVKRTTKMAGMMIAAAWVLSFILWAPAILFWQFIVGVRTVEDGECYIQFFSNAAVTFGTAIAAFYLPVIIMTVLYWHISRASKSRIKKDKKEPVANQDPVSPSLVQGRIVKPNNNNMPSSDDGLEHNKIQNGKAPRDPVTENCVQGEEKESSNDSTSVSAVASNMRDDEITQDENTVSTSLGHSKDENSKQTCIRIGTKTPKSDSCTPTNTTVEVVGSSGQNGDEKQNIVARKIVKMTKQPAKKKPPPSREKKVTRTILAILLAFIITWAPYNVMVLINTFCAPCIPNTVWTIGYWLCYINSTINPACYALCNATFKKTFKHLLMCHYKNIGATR

[4] = target: T4, Endothelin receptor type B (Homo sapiens, UniProt P24530)
T4 sequence (P24530 whole entry): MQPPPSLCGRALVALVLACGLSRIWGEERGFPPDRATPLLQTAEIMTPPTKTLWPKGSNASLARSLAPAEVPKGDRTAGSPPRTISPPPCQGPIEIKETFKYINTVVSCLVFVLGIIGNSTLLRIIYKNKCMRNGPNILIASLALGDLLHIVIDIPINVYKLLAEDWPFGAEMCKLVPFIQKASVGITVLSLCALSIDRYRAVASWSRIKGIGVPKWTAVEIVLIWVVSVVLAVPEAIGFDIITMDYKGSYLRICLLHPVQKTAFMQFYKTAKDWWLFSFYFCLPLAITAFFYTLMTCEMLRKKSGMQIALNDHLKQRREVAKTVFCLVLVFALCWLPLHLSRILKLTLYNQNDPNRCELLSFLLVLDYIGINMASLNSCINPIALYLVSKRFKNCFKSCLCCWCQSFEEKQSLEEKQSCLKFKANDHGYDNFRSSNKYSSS

[5] = target: Voltage-dependent N-type calcium channel subunit alpha-1B (Rattus norvegicus, UniProt Q02294); type: functional
Chain of Voltage-dependent N-type calcium channel subunit alpha-1B (Q02294 whole entry): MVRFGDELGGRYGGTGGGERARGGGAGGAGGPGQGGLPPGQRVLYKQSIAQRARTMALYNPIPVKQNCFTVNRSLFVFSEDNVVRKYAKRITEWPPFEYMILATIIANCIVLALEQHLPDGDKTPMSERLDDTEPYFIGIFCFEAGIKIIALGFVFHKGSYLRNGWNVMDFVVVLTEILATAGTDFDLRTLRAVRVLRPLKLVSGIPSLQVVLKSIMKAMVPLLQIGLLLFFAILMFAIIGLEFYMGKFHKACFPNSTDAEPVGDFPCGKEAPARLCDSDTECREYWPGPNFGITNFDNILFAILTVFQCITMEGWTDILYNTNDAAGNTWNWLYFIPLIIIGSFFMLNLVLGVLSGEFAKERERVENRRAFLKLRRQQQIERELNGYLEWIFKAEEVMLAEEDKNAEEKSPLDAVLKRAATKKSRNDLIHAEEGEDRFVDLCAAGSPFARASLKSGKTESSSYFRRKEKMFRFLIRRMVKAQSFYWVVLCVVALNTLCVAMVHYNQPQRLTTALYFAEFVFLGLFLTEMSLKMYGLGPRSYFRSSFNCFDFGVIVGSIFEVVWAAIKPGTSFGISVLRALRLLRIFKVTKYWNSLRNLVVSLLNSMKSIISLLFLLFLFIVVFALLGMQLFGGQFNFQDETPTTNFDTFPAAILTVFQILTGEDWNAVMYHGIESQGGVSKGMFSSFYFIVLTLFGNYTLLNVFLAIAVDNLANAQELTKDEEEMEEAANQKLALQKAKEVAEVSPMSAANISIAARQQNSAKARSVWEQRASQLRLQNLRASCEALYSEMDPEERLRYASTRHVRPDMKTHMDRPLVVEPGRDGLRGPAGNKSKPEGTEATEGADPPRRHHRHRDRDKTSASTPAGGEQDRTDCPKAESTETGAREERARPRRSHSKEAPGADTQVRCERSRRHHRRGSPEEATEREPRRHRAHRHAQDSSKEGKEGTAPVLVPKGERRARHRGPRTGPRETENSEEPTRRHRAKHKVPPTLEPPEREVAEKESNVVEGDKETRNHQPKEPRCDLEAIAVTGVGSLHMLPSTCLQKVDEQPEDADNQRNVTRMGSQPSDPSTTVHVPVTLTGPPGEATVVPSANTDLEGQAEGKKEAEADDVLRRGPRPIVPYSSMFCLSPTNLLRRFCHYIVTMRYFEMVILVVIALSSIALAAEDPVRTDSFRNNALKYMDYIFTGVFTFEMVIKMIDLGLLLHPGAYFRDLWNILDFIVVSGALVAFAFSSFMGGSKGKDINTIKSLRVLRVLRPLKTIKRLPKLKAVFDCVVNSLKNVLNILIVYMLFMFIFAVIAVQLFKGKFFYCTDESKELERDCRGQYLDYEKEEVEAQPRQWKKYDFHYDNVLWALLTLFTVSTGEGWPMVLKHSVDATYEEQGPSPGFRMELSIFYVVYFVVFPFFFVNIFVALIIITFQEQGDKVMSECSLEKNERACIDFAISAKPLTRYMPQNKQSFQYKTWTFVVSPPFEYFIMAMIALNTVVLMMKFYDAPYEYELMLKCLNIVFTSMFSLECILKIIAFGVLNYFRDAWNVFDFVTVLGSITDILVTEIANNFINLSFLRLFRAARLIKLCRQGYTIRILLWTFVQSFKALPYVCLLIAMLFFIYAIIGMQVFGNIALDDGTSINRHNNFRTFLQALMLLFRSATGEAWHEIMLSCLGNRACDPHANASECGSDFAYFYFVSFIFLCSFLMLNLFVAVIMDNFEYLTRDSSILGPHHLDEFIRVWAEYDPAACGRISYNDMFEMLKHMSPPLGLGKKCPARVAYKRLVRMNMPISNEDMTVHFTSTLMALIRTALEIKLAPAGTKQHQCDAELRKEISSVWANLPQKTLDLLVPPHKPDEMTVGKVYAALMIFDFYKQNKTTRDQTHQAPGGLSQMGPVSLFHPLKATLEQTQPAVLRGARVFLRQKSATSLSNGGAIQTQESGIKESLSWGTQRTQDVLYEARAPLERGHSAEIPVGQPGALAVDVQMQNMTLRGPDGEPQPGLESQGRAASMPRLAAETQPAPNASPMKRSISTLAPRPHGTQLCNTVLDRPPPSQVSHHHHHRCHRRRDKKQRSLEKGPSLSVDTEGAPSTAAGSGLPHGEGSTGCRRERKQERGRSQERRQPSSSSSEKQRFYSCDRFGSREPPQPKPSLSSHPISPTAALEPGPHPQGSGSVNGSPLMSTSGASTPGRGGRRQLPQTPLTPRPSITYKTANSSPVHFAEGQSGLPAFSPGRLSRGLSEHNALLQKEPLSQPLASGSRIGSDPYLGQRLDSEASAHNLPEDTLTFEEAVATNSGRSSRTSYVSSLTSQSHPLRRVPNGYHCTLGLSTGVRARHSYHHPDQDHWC
Note: assay procedure not described here.

| Compound | AC50 (Androgen receptor [1]) [µM] | AC50 (Histamine H1 receptor) [µM] | AC50 (Androgen receptor [2]) [µM] | further results |
| --- | --- | --- | --- | --- |
| Cc1cc2c(OCC(O)CNC(C)C)cccc2[nH]1 (stereo not drawn) [MEPINDOLOL] | > 30 |  |  |  |
| CC(=O)/N=c1/sc(S(N)(=O)=O)nn1C [METHAZOLAMIDE] |  | > 10 |  |  |
| CC[C@@H](CO)NC(=O)[C@@H]1C=C2c3cccc4[nH]cc(c34)C[C@H]2N(C)C1 [METHYLERGONOVINE] |  |  | 18 |  |
| CCCCCOc1ccc(-c2cc(-c3ccc(C(=O)N[C@H]4C[C@@H](O)[C@@H](O)NC(=O)[C@@H]5[C@@H](O)[C@@H](C)CN5C(=O)[C@H]([C@H](O)CC(N)=O)NC(=O)[C@H]([C@H](O)[C@@H](O)c5ccc(O)c(OS(=O)(=O)O)c5)NC(=O)[C@@H]5C[C@@H](O)CN5C(=O)[C@H]([C@@H](C)O)NC4=O)cc3)no2)cc1 [MICAFUNGIN] (X1-[Orn(4R-OH,5R-OH)]T[Hyp][hTyr(3S-OH,4S-OH,3'-OSO3H)][Gln(3R-OH)][Pro(3S-OH,4S-Me)]; lactam 1-C) | > 30 |  |  |  |
| CCOc1ccc2ccccc2c1C(=O)N[C@@H]1C(=O)N2[C@@H]1SC(C)(C)[C@@H]2C(=O)O [NAFCILLIN] | > 30 |  |  |  |
| CC(=O)Oc1ccccc1C(=O)Nc1ncc([N+](=O)[O-])s1 [NITAZOXANIDE] |  | > 30 |  |  |
| CNCCC=C1c2ccccc2CCc2ccccc21 [NORTRIPTYLINE] |  |  |  | AC50 [3]: 632 nM |
| CN(C)c1cc(CNCC(C)(C)C)c(O)c2c1C[C@H]1C[C@H]3[C@H](N(C)C)C(O)=C(C(N)=O)C(=O)[C@@]3(O)C(O)=C1C2=O [OMADACYCLINE] | > 30 | > 30 | > 30 | AC50 [3]: 4250 nM |
| COc1ccc(Cc2nccc3cc(OC)c(OC)cc23)cc1OC [PAPAVERINE] |  |  | > 30 |  |
| O=C1NC(=O)C(c2ccccc2)(c2ccccc2)N1 [PHENYTOIN] |  |  |  | AC50 [4]: > 30 µM; AC50 [5]: > 10 µM |
| CC(C)COc1ccc(CNC(=O)N(Cc2ccc(F)cc2)C2CCN(C)CC2)cc1 [PIMAVANSERIN] | > 30 |  |  |  |
| CC(C)C[C@H](CN)CC(=O)O [PREGABALIN] |  | > 30 |  | AC50 [4]: > 30 µM; AC50 [5]: > 10 µM |
| CC(C)[N+](C)(CCOC(=O)C1c2ccccc2Oc2ccccc21)C(C)C [PROPANTHELINE] | > 30 |  |  |  |
| CNC(=O)c1cc(Oc2ccc(NC(=O)Nc3ccc(Cl)c(C(F)(F)F)c3)c(F)c2)ccn1 [REGORAFENIB] | > 30 | > 30 | > 30 |  |
| CCOc1cc(CC(=O)N[C@@H](CC(C)C)c2ccccc2N2CCCCC2)ccc1C(=O)O [REPAGLINIDE] |  | > 30 | > 30 |  |
| CN(C)C(=O)c1nc(CNC(=O)CN)n(-c2ccc(Cl)cc2C(=O)c2ccccc2Cl)n1 [RILMAZAFONE] | > 30 |  |  |  |
| O=C(Nc1c(Cl)cncc1Cl)c1ccc(OC(F)F)c(OCC2CC2)c1 [ROFLUMILAST] |  | > 30 | > 30 |  |
| CCCN(CCc1cccs1)[C@H]1CCc2c(O)cccc2C1 [ROTIGOTINE] |  |  | > 30 |  |
| CC(C)N(CCCCOCC(=O)NS(C)(=O)=O)c1cnc(-c2ccccc2)c(-c2ccccc2)n1 [SELEXIPAG] |  | > 30 | > 30 |  |
| CCCCCCCCNC(C)C(O)c1ccc(SC(C)C)cc1 (stereo not drawn) [SULOCTIDIL] | > 30 |  |  |  |
| CN1CCN(CCCN2c3ccccc3Sc3ccc(S(=O)(=O)N(C)C)cc32)CC1 [THIOPROPERAZINE] |  | 0.33 |  |  |
| Cc1cc(CC(=O)O)n(C)c1C(=O)c1ccc(Cl)cc1 [ZOMEPIRAC] |  | > 30 |  |  |
